Assay results taken from patent US6346529B1, “Antiviral therapy using thiazine dyes” (Oklahoma Medical Research Foundation, priority 1988, dated 2002).

Test: Toxicity in Vero cells
Assay type: cell-based
Conditions: African green monkey
Protocol: The cells dislodged from the flask were generally in clumps and were dispersed by repeated forceful pipetting of the suspension against the surface of the flask. To 1 ml of the well-dispersed cell suspension, 0.2 ml of trypan blue solution was added, and the number of cells were counted using a hemacytomer. Each day for the next 3 days, two of the remaining flasks were harvested in the manner just described for determination of cell number. Only data on day three are presented. This method has previously been described by Schinazi, et al., “Effect of Combination of Acyclovir, and Vidarabine or its 5′-monophosphate on Herpes Simplex Viruses in Cell Culture and in Mice,” Antimicrob. Agents Chemother. 22, 499-507 (1982)). Median-Effect Method: EC50 and IC50 values were obtained by analysis of the data using the median-effect equation (Chou, T., et al., “Quantitative Analysis of Dose-Effect Relationships: The Combined Effects of Multiple Drugs or Enzyme Inhibitors,” Adv. Enz. Regul. 22, 27-55 (1984).

`Nc1nc2c(ncn2COCCO)c(=O)[nH]1` [ACV, Acyclovir] showed an IC50 at 3 days of 1700 µM.
